System: snap bean seedling diseases (Pythium spp., Rhizoctonia solani, Macrophomina phaseolina, and Fusarium spp.)
Test: Spring-planted 2013 snap bean field test
Conditions: in vivo

O.O.O=C([O-])c1ccccc1O.O=C([O-])c1ccccc1O.[Ca+2] [calcium salicylate, calcium salicylate dihyrate]
Overall snap bean yield: highest | Seedling emergence 15 days after planting (May 8): greatest | healthy plant stands: highest

— US20160302412A1, “USES OF SALICYLIC ACID” (UNIVERSITY OF TENNESSEE RESEARCH FOUNDATION, priority 2013, published 2016)
